Experimental data from patent publication US4797399A, “Piperazine compounds and antithrombotic pharmaceutical composition comprising the same” (Fujisawa Pharmaceutical Co., Ltd., priority 1986, dated 1989).
Like-named read-outs stand apart in the source and are kept apart here.

What was measured:
[1] = tested on: platelet aggregation (ADP); assay: Platelet aggregation in vitro, ADP-induced (rabbit platelet rich plasma); assay type: cell-based; conditions: Oryctolagus cuniculus
Procedure: (§1) Platelet rich plasma (PRP) which contains 6-7×10^8 platelets/ml was prepared from rabbit blood. To the 200 μl of PRP, 5 μl of calcium chloride (1 mM) and 50 μl of 25 mM Tris-acetate solution (pH 7.4) containing 120 mM NaCl or test compound were added successively, and then stirred for 2 min. at 37° C. […] Aggregation was measured by using an aggregometer. (NKK HEMA-TRACER 1).

[2] = tested on: platelet aggregation (collagen); assay: Platelet aggregation in vitro, collagen-induced (rabbit platelet rich plasma); assay type: cell-based; conditions: Oryctolagus cuniculus
Procedure: as §1

[3] = tested on: platelet aggregation (collagen); assay: Platelet aggregation ex vivo, collagen-induced, after oral administration to rats; assay type: in vivo, Sprague-Dawley rats; conditions: 1 hour after dosing, collagen 5.0 μg/ml
Procedure: Male Sprague-Dawley rats weighing about 250 g were used after overnight fasting. One hour after oral administration of test compound or vehicle of test compound (control), blood was collected into a tube containing 0.1 vol. of 3.8% sodium citrate. To the 0.45 ml of blood, 0.05 ml of collagen (final concentration 5.0 μg/ml) was added and then incubated for 5 min. at 37° C. under shaking.
The reaction was terminated by addition of 1 ml of 10 mM phosphate buffered saline (pH 7.4) containing 11.5 mM EDTA and 1% formalin. The reaction mixture was centrifuged at 70×g for 5 min. and platelet count of upper phase was measured by Technicon Auto Analizer.
Platelet aggregation was calculated according to the following formula: [formula] A. Platelet count after addition of vehicle of collagen B. Platelet count after addition of collagen
Inhibition of the test compound was calculated according to the following formula; [formula] C. Platelet aggregation (%) of control D. Platelet aggregation (%) of Test compound

carrageenin foot edema = assay: Carrageenin foot edema; assay type: in vivo, Sprague-Dawley rats; conditions: 320 mg/kg oral, 60 min before phlogogen, edema at 3 hours; * P < 0.05
Procedure: Male Sprague-Dawley rats weighing about 180 g were used in groups of five. Paw edema was induced by subplantar injection of 1% carrageenin (0.1 ml/rat) into the right hind paw in carrageenin foot edema. The test compound was suspended in methylcellulose and administered orally 60 minutes before phlogogen. Paw volume was measured with plethysmometer (Ugo Basil Co., Ltd.) by water displacement immersing the paw to the lateral malleolus. The difference of paw volume before and 3 hours after the phlogogen was designated as edema volume. The data analyzed statistically by student's t-test.

systemic anaphylaxis = assay: Systemic anaphylaxis (passive sensitization with rabbit anti-ovalbumin serum, ovalbumin aerosol); assay type: in vivo, Hartley guinea pigs; conditions: 30 min before antigen aerosol
Procedure: Male Hartley guinea pigs (300-400 g, n=5) were passively sensitized with i.v. injection of rabbit anti-ovalbumin serum. 24 Hours later, test compound was administered orally. 30 Min. after administration of test compound, sensitized animals were placed for 2 min. in a chamber filled with antigen aerosol (ovalbumin) by a conventional nebulizer. Survived animals were regarded as being protected from systemic anaphylaxis.

[4] = tested on: acetic acid-induced writhing; assay: Acetic acid-induced writhing syndrome; assay type: in vivo, Scl:ddy strain mice; conditions: 32 mg/kg oral, 60 min before 0.6% acetic acid i.p., 3-13 min count; * P < 0.01
Procedure: Male Scl:ddy strain mice aged 6 weeks were used in groups of 10. The test compound was suspended in methylcellulose and administered orally. After 60 min., 20 ml/kg of 0.6% acetic acid solution was administered i.p. and writhing episodes between 3 and 13 min. after acetic acid injection were counted. The data was analyzed statistically by student's t-test.

Row | SMILES | IC50 ([1]; pH 7.4, read-out: ID50 ADP (dose required to inhibit platelet aggregation by 50%)) | IC50 ([2]; pH 7.4, read-out: ID50 Collagen (dose required to inhibit platelet aggregation by 50%)) | IC50 ([1]; inducer ADP (2.5 μM), rabbit PRP, pH 7.4, 37° C, read-out: ID50 ADP (dose required to inhibit platelet aggregation by 50%)) | IC50 ([2]; inducer collagen (2.5 μg/ml), rabbit PRP, pH 7.4, 37° C, read-out: ID50 Collagen (dose required to inhibit platelet aggregation by 50%)) | Inhibition (%) of platelet aggregation ex vivo ([3]; 10 mg/kg oral) | Inhibition (%) of platelet aggregation ex vivo ([3]; 32 mg/kg oral) | Inhibition (%) of platelet aggregation ex vivo ([3]; 100 mg/kg oral) | Inhibition (%) of carrageenin foot edema (carrageenin foot edema) | Survival (%) (systemic anaphylaxis; 10 mg/kg oral) | Survival (%) (systemic anaphylaxis; 100 mg/kg oral) | Inhibition (%) of acetic acid-induced writhing [4]
1 | CC(=O)Oc1ccccc1C(=O)O [Aspirin, reference compound] | 3200 µM | 31 µM |  |  |  |  |  |  |  |  | 
2 | Cl.NN1CCN(C(=O)Cn2c(=O)sc3ccc(Cl)cc32)CC1 [Example 5, 5-chloro-3-[(4-amino-1-piperazinyl)carbonylmethyl]-2-benzothiazolinone hydrochloride] |  |  | 14 µM | 14 µM | 2% | 67% | 100% | 40.0% | 20% | 100% | 32.8%
